In US10729710B2, “Catecholamine prodrugs for use in the treatment of Parkinson's disease” (H. Lundbeck A/S, priority 2017, dated 2020):
Structures can show the parent of a compound that is named as a salt.

Columns and labels:
[1] = tested on: hepatocytes from rat; assay: Conversion to compound (I) in rat hepatocytes; assay type: in vitro ADME; settings: 1 μg/mL, 37° C., 0.25-60 minutes, FIG. 7a
Protocol: (§1) The cell concentration at incubation was 1×10^6 viable cells/mL. The incubations were performed in glass tubes at 37° C. with a total incubation volume of 3.5 mL and with duplicate incubations for each test item. The 3.5 mL of hepatocyte suspension was equilibrated for 10 minutes in a water bath set to 37° C. where after the incubations were initiated by adding 3.5 μL of a stock solution of the test item in DMSO (Dimethyl sulfoxide) and gently inverting the tubes. The final solvent concentration in the incubations was 0.1% DMSO. Samples of 600 μL were withdrawn from the incubations at the pre-determined time points of 0.25, 5, 15, 30 and 60 minutes after ensuring homogeneity of hepatocyte suspensions. The withdrawn volume was added to 1 mL Nunc cryo tubes on wet ice containing 60 μL of ice cold ascorbic acid (100 mg/mL) and 30 μL of ice cold 100 mM saccharic acid 1.4-lactone in 0.5 M citric acid. The tubes were mixed and 35 μL of a solution of ice cold 20% formic acid was added. The tubes were mixed thoroughly and stored at −80° C. awaiting analysis. Analysis method and Instrumentation used for analysis of (I) from dosing (Id-ia), (Id-ib), (Id-iia) and (Id-iib), were the one described in Examples 4 and 5 below in the section “Instrumentation used for analysis of compound (I) from dosing of compounds (Ic), (Id-ia), (Id-ib), (Id-iia), (Id-iib), (Id-iab) and (Id-iiab).”
(§2) Analysis method and Instrumentation used for analysis of (I) from dosing (Id-iab) and (Id-iiab) consisted of mixing equal aliquots of the samples and precipitation solution (acetonitrile (MeCN) with 10% methanol (MeOH) and 1% formic acid), followed by centrifugation at 4° C. at 16000 g for 10 minutes. Supernatants were collected and analysed by LC-MS/MS. Mass spectrometer: Waters Acquity—Waters Xevo TQ-MS. Analytical column: Acquity UPLC HSS T3, 100×2.1 mm, 1.8 μm. Mobile phase A: 0.2% formic acid in water. Mobile phase B: 0.2% formic acid in acetonitrile. Gradient run from 95/5% to 60/40 in 5 min. Flow rate 0.3 mL/min. MRM monitoring of (I) in the study samples and in the analytical standards.

[2] = PK experiments in rats: plasma compound (I) after oral dosing of prodrugs; assay type: in vivo, Han Wistar rats; settings: Wistar rats, FIG. 2, doses equal to 287 μg/kg of compound (I)
Protocol: Plasma was placed on water-ice following collection. Final storage at approximately −70° C.
Mobile phase B: Acetonitrile. […] Flow rate 0.5 mL/min.
The rats had unrestricted access to the diet.
Mobile phase B: Acetonitrile+0.2% formic acid. […] Flow rate 0.3 mL/min.
Han Wistar rats were supplied by Envigo, UK. […] The rats received a standard laboratory diet Teklad 2014C. The rats had unrestricted access to the diet.

[3] = tested on: hepatocytes from human; assay: Conversion to compound (I) in human hepatocytes; assay type: in vitro ADME; settings: 1 μg/mL, 37° C., 0.25-60 minutes, FIG. 7b
Protocol: as §1, §2

[4] = target: human 5-HT2B receptor (Homo sapiens (Human), UniProt P41595); assay: 5-HT2B radioligand binding assay ([125I](±)DOI); settings: 0.2 nM [125I](±)DOI, read-out: 5-HT2B binding affinity (% inhibition of control, specific binding at concentration indicated)
Protocol: Membrane homogenates prepared from CHO cells expressing the human 5HT2B receptor were incubated for 60 min at room temperature with 0.2 nM [125I](±)DOI (1-(4-iodo-2, 5-dimethoxyphenyl)propan-2-amine) in the absence or presence of the test compound in a buffer containing 50 mM Tris-HCl (pH 7.4), 5 mM MgCl2, 10 μM pargyline and 0.1% ascorbic acid. Nonspecific binding is determined in the presence of 1 μM (±)DOI. Following incubation, the samples were filtered rapidly under vacuum through glass fiber filters (GF/B, Packard) presoaked with 0.3% polyethyleneimine (PEI) and rinsed several times with ice-cold 50 mM Tris-HCl using a 96-sample cell harvester (Unifilter, Packard). The filters were dried and counted for radioactivity in a scintillation counter (Topcount, Packard) using a scintillation cocktail (Microscint 0, Packard). The results are expressed as a percent inhibition of the control radioligand specific binding. The standard reference compound was (±)DOI, which was tested in each experiment at several concentrations to obtain a competition curve from which its IC50 is calculated.

[5] = Conversion to compound (I) in fresh human blood; assay type: in vitro ADME; settings: fresh blood 37° C., 1 μg/mL, 0-60 minutes, FIG. 8b
Protocol: (§3) Conversion of (Id-ia), (Id-ib), (Id-iia) and (Id-iib) in human blood (average of 3 donors) and rat blood (average of 45 donors) to (I) was shown in fresh blood at 37° C. spiked with 1 μg/mL of (Id-ia), (Id-ib), (Id-iia) and (Id-iib) separately, (I) was measured at 0, 5, 15, 30 and 60 minutes in isolated plasma. Analysis method and Instrumentation as described in Examples 4 and 5 below in the section “Instrumentation used for analysis of compound (I) from dosing of compounds (Ic), (Id-ia), (Id-ib), (Id-iia), (Id-iib), (Id-iab) and (Id-iiab).”

[6] = Conversion to compound (I) in fresh rat blood; assay type: in vitro ADME; settings: fresh blood 37° C., 1 μg/mL, 0-60 minutes, FIG. 8a
Protocol: as §3

Chain of human 5-HT2B receptor (P41595 whole entry): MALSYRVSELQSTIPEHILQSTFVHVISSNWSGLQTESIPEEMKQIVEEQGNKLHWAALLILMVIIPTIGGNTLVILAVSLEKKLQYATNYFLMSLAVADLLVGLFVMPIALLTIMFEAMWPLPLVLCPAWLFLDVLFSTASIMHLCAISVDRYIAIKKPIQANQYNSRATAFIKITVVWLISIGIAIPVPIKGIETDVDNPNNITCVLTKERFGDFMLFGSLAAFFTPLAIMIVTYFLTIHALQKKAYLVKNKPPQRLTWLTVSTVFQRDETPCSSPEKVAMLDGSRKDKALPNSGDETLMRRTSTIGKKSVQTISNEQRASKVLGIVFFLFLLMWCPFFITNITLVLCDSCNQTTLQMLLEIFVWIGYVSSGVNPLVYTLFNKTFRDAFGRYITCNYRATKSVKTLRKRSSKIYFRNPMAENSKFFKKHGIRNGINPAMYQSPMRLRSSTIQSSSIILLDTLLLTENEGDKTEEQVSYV

SMILES	conversion to compound (I) in rat hepatocytes [1]	plasma profile of compound (I) after oral dosing (in words) [2]	conversion to compound (I) in human hepatocytes [3]	inhibition at 10 µM [4]	conversion to compound (I) in human blood [5]	conversion to compound (I) in rat blood [6]
CCCN1CCC[C@@H]2Cc3c(ccc(O[C@@H]4O[C@H](C(=O)O)[C@@H](O)[C@H](O)[C@H]4O)c3O[C@@H]3O[C@H](C(=O)O)[C@@H](O)[C@H](O)[C@H]3O)C[C@H]21 [(Id-iab), (2S,2′S,3S,3′S,4S,4′S,5R,5′R,6S,6′S)-6,6′-(((4aR,10aR)-1-propyl-1,2,3,4,4a,5,10,10a-octahydrobenzo[g]quinoline-6,7-diyl)bis(oxy))bis(3,4,5-trihydroxytetrahydro-2H-pyran-2-carboxylic acid)]	time dependent conversion to compound (I)	slower absorption rate avoiding rapid peak concentrations accompanied by a sustained exposure of compound (I) in plasma	time dependent conversion to compound (I)	17%	–	–
CCCN1CCC[C@@H]2Cc3c(ccc(O[C@@H]4O[C@H](C(=O)O)[C@@H](O)[C@H](O)[C@H]4O)c3O)C[C@H]21 [(Id-ib), (2S,3S,4S,5R,6S)-3,4,5-trihydroxy-6-(((4aR,10aR)-6-hydroxy-1-propyl-1,2,3,4,4a,5,10,10a-octahydrobenzo[g]quinolin-7-yl)oxy)tetrahydro-2H-pyran-2-carboxylic acid]	time dependent conversion to compound (I)	slower absorption rate avoiding rapid peak concentrations accompanied by a sustained exposure of compound (I) in plasma	time dependent conversion to compound (I)	–	time dependent conversion to compound (I)	time dependent conversion to compound (I)
CCCN1CCC[C@@H]2Cc3c(ccc(OS(=O)(=O)O)c3O)C[C@H]21 [(Id-iib), (4aR,10aR)-6-hydroxy-1-propyl-1,2,3,4,4a,5,10,10a-octahydrobenzo[g]quinolin-7-yl hydrogen sulfate]	time dependent conversion to compound (I)	slower absorption rate avoiding rapid peak concentrations accompanied by a sustained exposure of compound (I) in plasma	time dependent conversion to compound (I)	–	time dependent conversion to compound (I)	time dependent conversion to compound (I)
